Where two headings read alike, the source gives them in different places.
Key:
[1] = tested on: Dengue 2, New Guinea strain (NGC); assay: DENV-2 moDC EC50 (qPCR of viral RNA in infected moDCs); type: cell-based, New Guinea strain (NGC); human moDCs; conditions: human moDCs infected with Dengue 2 NGC, MOI=0.1, 48 hours
How it was run: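 moDCs differentiated 7 days from CD14+ monocytes with GM-CSF/IL-4, infected with Vero-derived DENV-2 NGC at MOI 0.1 for 2 h at 37 °C, then plated in triplicate with graded compound doses (0.25% DMSO). At 48 h viral RNA quantified by duplex TaqMan qPCR against GAPDH; EC50 normalized to positive and no-compound controls.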

[2] = moDC CC50 (CellTiter Glo viability); type: cell-based, Human; conditions: human, uninfected moDCs
[3] = tested on: Dengue serotype 2 New Guinea C (NGC) strain; assay: DENV-2 Huh-7 EC50 (qPCR of viral RNA in infected Huh7 cells); type: cell-based; conditions: MOI=0.1, 48 hours
How it was run: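 Huh7 cells were infected 2 h at 37 °C with DENV-2 NGC at MOI 0.1, then plated with graded compound doses (0.25% DMSO) in triplicate for 48 h. Viral RNA was quantified by duplex TaqMan qPCR against GAPDH. EC50 was normalized to positive and no-compound controls.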

[4] = Huh-7 CC50 (CellTiter Glo viability); type: cell-based, Human; conditions: human, Huh7 hepatocarcinoma cells
How it was run: (§1)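 Huh7 cells in 10% FCS DMEM plated at 1-2×10^4 per well in triplicate with graded compound doses, 0.25% DMSO throughout. Viability after 48 hours by CellTiter Glo luminescence, normalized to no-compound and no-cell controls; CC50 from curve fitting.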

[5] = tested on: RSV strain A2; assay: RSV HEp-2 EC50 (infectious cytopathic cell protection assay); type: cell-based, RSV strain A2; HEp-2 cells; conditions: read-out: RSV Hep-2 EC50
How it was run: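 HEp-2 cells (50,000/mL) infected with titered RSV stock, added onto compound in 3-fold serial dilutions; 4 days at 37 °C. Cell viability read by CellTiter-Glo luminescence; percent inhibition of virus-induced cytopathic effect derived from remaining viability against 0% and 100% inhibition controls.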

[6] = HEp-2 CC50 (cytotoxicity in uninfected HEp-2 cells); type: cell-based; conditions: human, CellTiter Glo
Procedure: (§2) Instead, an uninfected cell mixture at the same density is added at 20 uL/well to plates containing prediluted compounds, also at 100 nL/sample. Assay plates are then incubated for 4 days followed by a cell viability test using the same CellTiter Glo reagent addition and measurement of luminescent readouts. Untreated cell and cells treated at 2 μM puromycin (Sigma, St. Louis, MO) serve as 100% and 0% cell viability control, respectively.

[7] = tested on: RSV A2; assay: RSV NHBE EC50 (RSV A2 antiviral assay in NHBE cells); type: cell-based, RSV A2; normal human bronchial epithelial (NHBE) cells; conditions: human respiratory syncytial virus, 96 h; NHBE cells infected with RSV A2, 4 days, Cell-Titer Glo
Procedure: Example 88. RSV NHBE EC50
Normal human bronchial epithelial (NHBE) cells were purchased from Lonza (Walkersville, MD, Cat #CC-2540) and cultured in Bronchial Epithelial Growth Media (BEGM) (Lonza, Walkersville, MID, Cat 9 CC-3170). The cells were passaged 1-2 times per week to maintain<80% confluency. The NHBE cells were discarded after 6 passages in culture.
To conduct the RSV A2 antiviral assay, NHBE cells were plated in 96-well plates at a density of 7,500 cells per well in BEGM and allowed to attach overnight at 37° C. Following attachment, 100 μL of cell culture media was removed and 3-fold serially diluted compound was added using a Hewlett-Packard D300 Digital Dispenser. The final concentration of DMSO was normalized to 0.05%. Following compound addition, the NHBE cells were infected by the addition of 100 μL of RSV A2 at a titer of […] tissue culture infectious doses/mL in BEGM and then incubated at 37° C. for 4 days. The NHBE cells were then allowed to equilibrate to 25° C. and cell viability was determined by removing 100 μL of culture medium and adding 100 μL of Cell-Titer Glo viability reagent. The mixtures were incubated for 10 minutes at 25° C., and the luminescence signal was quantified on an Envision luminescence plate reader.

[8] = biological target: T1, DENV2 NS5 (Dengue virus type 2, UniProt P14340); assay: DENV Pol IC50 (DENV2-NS5 polymerase assay); type: biochemical; conditions: 100 nM DENV2 NS5, sshRNA template, 90 minutes at 30° C.
T1 construct: His tag (pET28b, thrombin-cleavable) (N); made in house; host or cells: E. coli BL21 (DE3)
Procedure: A 244 nucleotide secondary structureless heteropolymeric RNA (sshRNA) with sequence 5′-(UCAG)20(UCCAAG)14(UCAG)20-3′ (SEQ ID NO: 1) is used as the template with 5′-CUG-3′ primer in the DENV2-NS5 polymerase assay. Six two-fold dilutions of compounds starting from 200 nM and no inhibitor control are plated in 96-well plates. 100 nM DENV2 NS5 is preincubated for 5 minutes at room temperature in a reaction mixture containing 40 mM Tris-HCl (pH 7.5), 10 mM NaCl, 3 mM DTT, 0.2 unit/μL RNasin Plus RNase Inhibitor, 200 ng/μL sshRNA, 20 μM CUG and 2 mM MgCl2. Enzyme mix is added to compound dilutions and reactions initiated by the addition of a mixture containing 20 μM of three natural NTP plus 2 μM of analog:base matched competing natural NTP containing 1:100 α-33P-NTP. After 90 minutes at 30° C., 5 μL of the reaction mixtures are spotted on DE81 anion exchange paper. Filter papers are washed three times with Na2HPO4 (125 mM, pH 9) for 5 minutes, rinsed with water and ethanol, then air-dried and exposed to phosphorimager. Synthesized RNA is quantified using Typhoon Trio Imager and Image Quant TL Software and reaction rates are calculated by linear regression using GraphPad Prism 5.0. IC50 values are calculated in Prism by non-linear regression analysis using the dose-response (variable slope) equation (four-parameter logistic equation): Y=Bottom+(Top-Bottom)/(1+10^((Log IC50−X)*HillSlope)).

[9] = tested on: Human monocyte-derived dendritic cells (moDCs); assay: moDC CC50 (CellTiter Glo viability); type: cell-based; conditions: uninfected moDCs, 48 hours
[10] = tested on: Human hepatocarcinoma 7 (Huh7) cells; assay: Huh-7 CC50 (CellTiter Glo viability); type: cell-based; conditions: 48 hours
How it was run: as §1

[11] = tested on: uninfected HEp-2 cells; assay: HEp-2 CC50 (cytotoxicity in uninfected HEp-2 cells); type: cell-based; conditions: 4 days, CellTiter Glo
Procedure: as §2

[12] = Dengue virus, DENV2, Huh-7, Huh7 cells infected with Dengue serotype 2 NGC
[13] = human respiratory syncytial virus, HEp-2, 96 h
[14] = Huh7 cells infected with Dengue serotype 2 NGC
[15] = HEp-2 cells infected with RSV A2, 4 days, Cell TiterGlo

Compound: COC(=O)[C@H](C)NP(=O)(OC[C@@]1(CF)O[C@@H](c2ccc3c(N)ncnn23)[C@H](OC(=O)C(C)C)[C@@H]1OC(=O)C(C)C)Oc1ccccc1 (single isomer, unassigned) [Example 11]
- EC50 ([1]; Dengue virus): 380 nM
- CC50 at 48 h [2]: 16100 nM
- EC50 [3, 12]: 586 nM
- CC50 at 48 h [4]: > 18800 nM
- EC50 [5, 13]: 2040 nM
- CC50 at 4 days [6]: 12600 nM
- EC50 [7]: 367 nM

Compound: Nc1ncnn2c([C@@H]3O[C@](CCl)(COP(=O)(O)OP(=O)(O)OP(=O)(O)O)[C@@H](O)[C@H]3O)ccc12 [Comp. Ex. 2, ((2R,3S,4R,5S)-5-(4-aminopyrrolo[2,1-f][1,2,4]triazin-7-yl)-2-(chloromethyl)-3,4-dihydroxytetrahydrofuran-2-yl)methyl tetrahydrogen triphosphate, reference compound]
- IC50 [8]: 7090 nM

Compound: CCC(CC)COC(=O)[C@H](C)N[P@](=O)(OC[C@@]1(CF)O[C@@H](c2ccc3c(N)ncnn23)[C@H](O)[C@@H]1O)Oc1ccccc1 [Example 1, 2-ethylbutyl ((S)-(((2R,3S,4R,5S)-5-(4-aminopyrrolo[2,1-f][1,2,4]triazin-7-yl)-2-(fluoromethyl)-3,4-dihydroxytetrahydrofuran-2-yl)methoxy)(phenoxy)phosphoryl)-L-alaninate]
- EC50 ([1]; Dengue virus): 117 nM
- CC50 at 48 h [2]: > 5890 nM
- EC50 [3, 12]: 151 nM
- CC50 at 48 h [4]: 18000 nM
- EC50 [5, 13]: 119 nM
- CC50 at 4 days [6]: > 50000 nM
- EC50 [7]: 595 nM

Compound: Nc1ncnn2c([C@@H]3O[C@](CF)(COP(=O)(O)OP(=O)(O)OP(=O)(O)O)[C@@H](O)[C@H]3O)ccc12 [Example 2, sodium ((2R,3S,4R,5S)-5-(4-aminopyrrolo[2,1-f][1,2,4]triazin-7-yl)-2-(fluoromethyl)-3,4-dihydroxytetrahydrofuran-2-yl)methyl triphosphate]
- IC50 [8]: 737 nM

Compound: COC(=O)[C@H](C)NP(=O)(OC[C@@]1(CF)O[C@@H](c2ccc3c(N)ncnn23)[C@H](O)[C@@H]1O)Oc1ccccc1 (stereo partly drawn) [Example 10, methyl ((((2R,3S,4R,5S)-5-(4-aminopyrrolo[2,1-f][1,2,4]triazin-7-yl)-2-(fluoromethyl)-3,4-dihydroxytetrahydrofuran-2-yl)methoxy)(phenoxy)phosphoryl)-L-alaninate]
- EC50 ([1]; Dengue virus): 679 nM
- CC50 at 48 h [2]: > 19500 nM
- EC50 [3, 12]: 843 nM
- CC50 at 48 h [4]: > 25000 nM
- EC50 [5, 13]: 909 nM
- CC50 at 4 days [6]: > 50000 nM
- EC50 [7]: 2110 nM

Compound: CCOC(=O)[C@H](C)NP(=O)(OC[C@@]1(CF)O[C@@H](c2ccc3c(N)ncnn23)[C@H](OC(C)=O)[C@@H]1OC(C)=O)Oc1ccccc1 (stereo partly drawn) [Example 21, (2R,3S,4S,5S)-5-(4-aminopyrrolo[2,1-f][1,2,4]triazin-7-yl)-2-((((((S)-1-ethoxy-1-oxopropan-2-yl)amino)(phenoxy)phosphoryl)oxy)methyl)-2-(fluoromethyl)tetrahydrofuran-3,4-diyl diacetate]
- EC50 [1]: 1040 nM
- CC50 [9]: > 17300 nM
- EC50 [3, 14]: 3060 nM
- CC50 [10]: > 25000 nM
- EC50 [5, 15]: 1780 nM
- CC50 [11]: > 100000 nM

Compound: CCOC(=O)[C@H](C)NP(=O)(OC[C@@]1(CF)O[C@@H](c2ccc3c(N)ncnn23)[C@H](OC(=O)C(C)C)[C@@H]1OC(=O)C(C)C)Oc1ccccc1 (stereo partly drawn) [Example 24, (2R,3S,4S,5S)-5-(4-aminopyrrolo[2,1-f][1,2,4]triazin-7-yl)-2-((((((S)-1-ethoxy-1-oxopropan-2-yl)amino)(phenoxy)phosphoryl)oxy)methyl)-2-(fluoromethyl) tetrahydrofuran-3,4-diyl bis(2-methylpropanoate)]
- EC50 [1]: 257 nM
- CC50 [9]: 18600 nM
- EC50 [3, 14]: 1560 nM
- CC50 [10]: 16000 nM
- EC50 [5, 15]: 1830 nM
- CC50 [11]: 16600 nM

Compound: Nc1ncnn2c([C@@H]3O[C@@](CO)(CF)[C@@H](O)[C@H]3O)ccc12 [Intermediate 5, (2R,3S,4R,5S)-5-(4-aminopyrrolo[2,1-f][1,2,4]triazin-7-yl)-2-(fluoromethyl)-2-(hydroxymethyl)tetrahydrofuran-3,4-diol]
- EC50 [5, 13]: > 50000 nM
- CC50 at 4 days [6]: > 50000 nM
- EC50 [7]: > 4830 nM
